Reference: US6696433B2, “Use of sex steroids function modulators to treat wounds and fibrotic disorders” (Renovo Limited, priority 1996, dated 2004)
Marks after values point to notes of the source that are not given here.

Key:
[1] = tested on: full thickness incisional wounds; experiment: Incisional wound healing in OVX and sham rats, histology at day 7 post-wounding; assay type: in vivo, Female Sprague Dawley rats; details: day 7 wound from an intact female rat treated with oestrogen
elastase = experiment: Wound elastase activity: fibronectin zymography, immunoblotting and elastase substrate degradation; assay type: in vivo, human; details: day 7 wounds compared to placebo
Procedure: Proteases responsible for fibronectin degradation were identified by zymography using fibronectin-containing acrylamide gels (12% acrylamide and 0.33 mg/ml fibronectin, Central Blood Products Ltd). Tissue samples were lyophilized and homogenized using a ground glass homogenizer containing 0.5 ml buffer (100 mM Tris/HCl, 6M Urea, 15 mM CaCl2, 0.25% Triton-X100, pH 7.4). After centrifugation at 11,000 rpm for 10 min at 4° C. samples (20 μg dry wt) were incubated for 30 min at 37° C. with 2× Laemmli sample buffer and subjected to electrophoresis under non-reducing conditions (Laemmli, 1970). After electrophoresis, the gels were washed twice with 2.5% Triton-X100 for 1 hr to remove SDS. The gels were briefly washed with double distilled water and incubated for 18 h at 37° C. in developing buffer containing 50 mM Tris/HCl, 150 mM NaCl and 5 mM CaCl2, pH 7.4. At the end of incubation the gels were stained with 0.5% Coomassie brilliant blue and destained. […]
Tissue samples (20 μg dry wt) and human neutrophil elastase (0.01-0.3 μg/ml) were incubated for up to 1 h at 37° C. in 200 μl of 0.1M Hepes buffer, pH 7.5, containing 0.5M NaCl, 10% dimethylsulfoxide and 0.1 mM elastase substrate (methoxysuccinyl-ala-ala-pro-val-p-nitroanilide; Calibiochem Co;). Substrate degradation was determined by measuring OD410 (Dynatech MR5000). […] Results were expressed as ng/ml elastase activity/20 μg dry wt.

[2] = tested on: TGF-β1 secreted by dermal fibroblasts; experiment: TGF-β levels in fibroblast conditioned media, mink lung cell growth inhibition assay; assay type: cell-based, human; details: for TGF-beta LEVELS: 24 hr; for active TGF-β1 (non-heat-activated samples): fibroblast conditioned media after 24 hr treatment, compared to control; for FOLD INDUCTION of TGF-beta levels: relative to control
Procedure: Human dermal fibroblasts were explanted from the 4 mm punch biopsy specimens of normal skin. Fibroblasts used in the study were cultured at 37° C. in 95% air; 5% CO2 at 100% relative humidity, in phenol red-free DMEM (Gibco), 100 U/ml penicillin, […], 1 mM sodium pyruvate, 2 mM L-glutamine, non-essential amino acids and charcoal-stripped 10% FCS (Gibco, UK) (to remove endogenous steroids).
Cultured cells at passage 3-5 were seeded overnight in 24-well plates at a density of 2×10^5 cells per well in serum free media. The following morning oestrogen or progesterone (made soluble by the incorporation of the carrier cyclodextrin; Sigma, Poole), ranging from 1 pM to 1 mM doses, were added to the medium for 24 hrs. All samples were assessed in triplicate. The media was removed after the 24 hr incubation. 1 mg/ml of aprotinin, leupeptin and pepstatin A was then added to the media which was used immediately in a TGF-β assay (see below). Controls included cyclodextrin at the appropriate concentration, and serum-free medium alone.
TGF-β levels in the media (2.1.5.2) were determined using a mink lung growth inhibition assay as described by Danielpour et al, (J Cell Physiol, 138 p79-86) Briefly, mink lung epithelial cells (MLECs) were maintained in DMEM and 10% FCS at 37° C. in 10% CO2. Subconfluent cells were trypsinized, resuspended in 10% FCS, pelleted at 500 g for 5 min, washed with 10 ml of assay buffer (DMEM, 2% FCS, 10 mM HEPES pH 7.4, penicillin 25 U/ml, streptomycin 25 μg/ml), resuspended in assay buffer and seeded at 10^5 cells/well in a 24-well Costar plate. After 1 hr conditioned media or control media (with varying concentrations of hormones ranging from 1 pM-1 mM or cyclodextrin alone) were added, 22 hrs later cells were pulsed with [^3H] thymidine (0.5 μCi/well) for 2 hrs at 37° C., and the procedure described above for the extraction and measurement of radioactivity followed (2.1.5.3). A standard curve was produced using 10-1000 pg/ml TGF-β standard (R&D) from which inhibition data could be converted to pg/ml. Results were presented as pg/ml TGF-β/10^5 cells (relative to control valves for each individual hormone concentration).

[3] = tested on: 4 mm punch biopsy wounds of the upper inner arm; experiment: Topical oestrogen patch clinical trial of wound healing in elderly men and women; assay type: in vivo, human; set-up: key to Collagen Quantities: +=minimal quantities; ++=less than normal skin; +++=similar to normal skin; ++++=greater than normal skin; details: for Collagen Quantities: oestradiol patch, DAY 80
[4] = OLD person (2A or 2B) fibroblasts, mM dose
[5] = OLD person (2A or 2B) fibroblasts, nM dose
[6] = OLD person (2A or 2B) fibroblasts, pM dose
[7] = OLD person (2A or 2B) fibroblasts, μM dose
[8] = YOUNG person (2C) fibroblasts, mM dose
[9] = YOUNG person (2C) fibroblasts, nM dose
[10] = YOUNG person (2C) fibroblasts, pM dose
[11] = YOUNG person (2C) fibroblasts, μM dose

Structure (SMILES)	TGF-beta LEVELS [2, 4] [pg/ml/10^5 cell/24 hr]	TGF-beta LEVELS [2, 5] [pg/ml/10^5 cell/24 hr]	TGF-beta LEVELS [2, 6] [pg/ml/10^5 cell/24 hr]	TGF-beta LEVELS [2, 7] [pg/ml/10^5 cell/24 hr]	TGF-beta LEVELS [2, 8] [pg/ml/10^5 cell/24 hr]	TGF-beta LEVELS [2, 9] [pg/ml/10^5 cell/24 hr]	TGF-beta LEVELS [2, 10] [pg/ml/10^5 cell/24 hr]	TGF-beta LEVELS [2, 11] [pg/ml/10^5 cell/24 hr]	active TGF-β1 (non-heat-activated samples) [2]	further results
C[C@]12CC[C@@H]3c4ccc(O)cc4CC[C@H]3[C@@H]1CC[C@@H]2O [Oestrogen]	416 ± 80	280 ± 60	80 ± 50	315 ± 47	428 ± 58	312 ± 30	118 ± 24	282 ± 22	no increase	wound healing in stained sections (FIG. 1 c) [1]: improved wound healing; elastase activity (synthetic elastase substrate degradation assay) (elastase): significantly reduced; Collagen Quantities ([3]; FEMALES (3A)): ++++; Collagen Quantities ([3]; MALES (3C)): ++++; Collagen levels ([3]; day 7 and day 80 post-wounding, both sexes (3A and 3C) compared to placebo): consistently increased
CC(=O)[C@H]1CC[C@H]2[C@@H]3CCC4=CC(=O)CC[C@]4(C)[C@H]3CC[C@]12C [Progesterone, progesterone]	33 ± 13	90 ± 38	32 ± 13	65 ± 15	82 ± 13	115 ± 20	70 ± 31	96 ± 13	no increase	FOLD INDUCTION of TGF-beta levels [2, 4]: 1; FOLD INDUCTION of TGF-beta levels [2, 5]: 2.6*; FOLD INDUCTION of TGF-beta levels [2, 6]: 1; FOLD INDUCTION of TGF-beta levels [2, 7]: 2*; FOLD INDUCTION of TGF-beta levels [2, 8]: 0.8; FOLD INDUCTION of TGF-beta levels [2, 9]: 1; FOLD INDUCTION of TGF-beta levels [2, 10]: 0.6; FOLD INDUCTION of TGF-beta levels [2, 11]: 1; increase in TGF-β1 levels ([2]; nM and μM doses, fibroblasts from the aged subjects (2A or 2B)): 2 fold; effect on TGF-β1 production compared to controls ([2]; young fibroblasts (Group 2C)): no significant effect
